Results: article PMC3341351, “Down-Regulation of GABAA Receptor via Promiscuity with the Vasoactive Peptide Urotensin II Receptor. Potential Involvement in Astrocyte Plasticity” (PLoS ONE, 2012)
“Also recorded” adds a separate entry of the source. Where no end group is shown, it is not given here.

Columns and labels:
[1] = molecular target: T1, human UT (Homo sapiens, UniProt Q9UKP6); conditions: ref [54], [55]; cited from earlier work
T1 construct: expressed in transfected cells; host or cells: CHO-K1 electroporated with pIRES-neo2-UT, G-418 selected
T1 sequence (Q9UKP6 1-389): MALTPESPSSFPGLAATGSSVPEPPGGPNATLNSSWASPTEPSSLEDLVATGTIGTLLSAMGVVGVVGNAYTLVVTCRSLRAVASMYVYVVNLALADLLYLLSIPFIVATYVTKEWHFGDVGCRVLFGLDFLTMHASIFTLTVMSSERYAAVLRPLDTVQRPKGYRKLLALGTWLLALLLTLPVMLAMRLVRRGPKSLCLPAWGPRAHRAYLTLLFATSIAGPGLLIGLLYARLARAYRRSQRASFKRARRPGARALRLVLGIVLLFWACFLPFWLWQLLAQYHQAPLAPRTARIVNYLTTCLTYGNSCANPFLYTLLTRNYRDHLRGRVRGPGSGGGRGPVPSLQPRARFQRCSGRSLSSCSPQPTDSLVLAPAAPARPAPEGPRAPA

[2] = tested on: α2β3γ2 GABAAR in the absence of UT; assay: Patch-clamp of Iso-evoked current in CHO expressing α2β3γ2 GABAAR without UT; format: cell-based; conditions: DMCM 10^−5 M; hUII and URP 10^−8 M; [Orn^5]-URP and palosuran 10^−6 M; Iso 10^−4 M, 2 s; n = 3–18
Procedure: (§1) For transfection, cells were trypsinized (0.05%), triturated in HamF-12 containing 10% FBS media, pelleted by centrifugation, resuspended in 100 µl solution V for nucleofection by an Amaxa Nucleofector Device (Köln, Germany; set to program U-016). Experiments were performed on normal CHO or on the stable CHO-UT cells and transiently transfected with combinations of cDNA encoding α2β3γ2, α2β3γ1, α2β1γ2, α2β3γ1, α2β3, β3γ2 (4 µg of cDNA total/transfection) GABAAR subunits. Cells were seeded on 14-mm poly-L-lysine-coated glass bottom insert dishes at 5×10^5 cells in a volume of 0.5 ml/dish. Cells were incubated overnight at 37°C in a humidified incubator (5% CO2) during 16 h before electrophysiological or immunocytochemical experiments.
(§2) GABAA receptor cDNA clones; α2, β1, β3, γ1 and γ2L engineered into the expression vector pCDM8 ([…], β1, γ2) or pcDNA/Amp (β3, γ1), were generously provided by Dr Wingrove (Merk Sharp and Dohme, Harlow, UK). To obtain β3 ^HA or γ2 ^HA epitope-tagged subunits, β3 or γ2 cDNA was amplified and the PCR product was subcloned using the SalI and NotI sites of pCMV-HA (Table S2) after digestion by the same restriction enzymes.
The conventional whole-cell configuration of the patch-clamp technique was used to study the GABA-gated currents in astrocytes and granule neurons, UT stably transfected CHO, CHO-UT, and CHO transiently transfected with diverse variants of UT and GABAAR subunits. After 24-h transfection, cell culture coverslips were placed in a small chamber (1.5 ml) on a stage of a right microscope DMLFSA (Leica, Heidelberg, Germany) and superfused continuously with the following bath solution containing (in mM): NaCl, 150; KCl, 2.5; HEPES, 5; CaCl2, 2; MgCl2, 1; glucose, 10 (pH 7.4 adjusted with NaOH). The patch pipettes were fabricated from 1.5 mm (outer diameter) soft glass tubes on a two-step vertical pipette puller (List-Medical, L/M-3P-A, Darmstadt, Germany). […] ATP and GTP were added to the internal solution used to fill electrode just before recording. All recordings were obtained at RT with cells voltage-clamped at −70 mV. The GABAA receptor agonist isoguvacine was prepared in the extracellular solution and was applied to cells by pneumatic pressure ejection. To prevent desenzitization, isoguvacine was more often ejected during 5 s at 2-min intervals. ATP, GTP, or guanosine 5′-O-(2-thiodiphosphate) (GDPβS) were administered through the patch pipette solution. We investigated the effect of competitive inhibition of GDP-GTP exchange by including GDPβS in the pipette solution (in addition to the normal amount of GTP). For GDPβS and the KIC, immediately following patch rupture, GABA current recordings were performed and the experiment was commenced after an equilibration period of 15 min. […]

[3] = molecular target: T1, human UT; assay: Fura-2 calcium imaging ([Ca^2+]c) in CHO-UT; format: cell-based
Procedure: (§3) CHO-K1 cell lines were obtained from American Type Culture Collection (Manassas, VA, USA). The human UT stable CHO (CHO-UT) was generously provided by Dr Christophe Dubessy (Inserm, Rouen University, France) et generated by CHO electroporation with 20 µg pIRES-neo2-UT DNA and 500 µg sterile sonicated salmon sperm DNA using the EasyJect One electroporation system (Equibio, Angleur, Belgium), followed by repetitive rounds of limiting dilution of cells in G-418 (400 µg/ml) for selection. Normal or stable CHO was grown in Ham-F12 medium supplemented with 10% FBS, 1% antibiotic-antimicotic solution and 2 mM glutamine, at 37°C in a humidified incubator with an atmosphere of 5% CO2. The stable CHO-UT medium was supplemented with the antibiotic G-418 (40 µg/ml).
For cell calcium imaging, Fura-2 AM (5 mM, Molecular Probe; Fisher, Cergy-Pontoise, France) was dissolved in 20% pluronic F-127 (w/v, DMSO) and then added to culture medium at final concentrations of 5 µM and 0.02%, with 2.5 mM probenecid (Sigma-Aldrich) respectively. Cells were incubated in the dye solution for 1 h in an humidified atmosphere (37°C, 5% CO2) and then rinsed in the standard extracellular solution used for patch-clamp experiments. For simultaneous measurements of intracellular calcium and chloride-evoked currents in CHO, patch-clamp electrodes were filled with an internal solution containing : KCl, 140; MgCl2, 4; Fura-2-pentoK, 0.25; HEPES, 10; ATP, 1; GTP, 0.1 (pH 7.4 adjusted with KOH). Fluorescence images were acquired with the right microscope DMLFSA (Leica) equipped with a digital CCD camera Coolsnap HQ (Photometrics, Roper scientific, Evry, France). A high-speed scanning polychromatic light source was used for alternate excitations at wavelenghts of 340 and 380 nm. The fluorescence intensities at both wavelenghts (F340 and F380) were mesured every 500 ms. Image acquisition and analysis were obtained with a MetaFluor/Metamorph Imaging System (Roper scientific). The ratio between the two images was proportional to the [Ca^2+]c in the cell under study. Before an experiment, the bath ground level of fluorescence (attributable to autofluorescence and camera noise) was determined and systematically substracted.

[4] = molecular target: T2, α2β3γ2 GABAAR co-expressed with human UT (Homo sapiens, UniProt Q9UKP6); assay: Patch-clamp of Iso-evoked current in CHO-UT co-expressing α2β3γ2 GABAAR (CHO-UT-GABAAR); format: cell-based
T2 construct: expressed in transfected cells; host or cells: CHO-K1 stably expressing human UT (pIRES-neo2-UT), transiently nucleofected with GABAAR subunit cDNAs
T2 sequence (Q9UKP6 1-389): T1 sequence (Q9UKP6 1-389)
Procedure: as §3, §1, §2
The conventional whole-cell configuration of the patch-clamp technique was used to study the GABA-gated currents in astrocytes and granule neurons, UT stably transfected CHO, CHO-UT, and CHO transiently transfected with diverse variants of UT and GABAAR subunits. After 24-h transfection, cell culture coverslips were placed in a small chamber (1.5 ml) on a stage of a right microscope DMLFSA (Leica, Heidelberg, Germany) and superfused continuously with the following bath solution containing (in mM): NaCl, 150; KCl, 2.5; HEPES, 5; CaCl2, 2; MgCl2, 1; glucose, 10 (pH 7.4 adjusted with NaOH). The patch pipettes were fabricated from 1.5 mm (outer diameter) soft glass tubes on a two-step vertical pipette puller (List-Medical, L/M-3P-A, Darmstadt, Germany). […] ATP and GTP were added to the internal solution used to fill electrode just before recording. All recordings were obtained at RT with cells voltage-clamped at −70 mV. The GABAA receptor agonist isoguvacine was prepared in the extracellular solution and was applied to cells by pneumatic pressure ejection. To prevent desenzitization, isoguvacine was more often ejected during 5 s at 2-min intervals. ATP, GTP, or guanosine 5′-O-(2-thiodiphosphate) (GDPβS) were administered through the patch pipette solution. We investigated the effect of competitive inhibition of GDP-GTP exchange by including GDPβS in the pipette solution (in addition to the normal amount of GTP). For GDPβS and the KIC, immediately following patch rupture, GABA current recordings were performed and the experiment was commenced after an equilibration period of 15 min.
All peptide ligands, inhibitors or allosteric modulators of the GABAA receptor function were applied via gravity through a plastic tubing positioned in the vicinity of the cell body in order to maintain a sustained perfusion. In these conditions, drugs could reach the cell of interest after 30 s of perfusion. Isoguvacine was applied focally by pneumatic pressure ejection from a micropipette.

[5] = molecular target: T3, human urotensin II receptor UT, stably expressed in CHO (CHO-UT) (human) (UniProt Q9UKP6)
T3 sequence: T1 sequence (Q9UKP6 1-389)

[6] = molecular target: T3, human urotensin II receptor UT, stably expressed in CHO (CHO-UT) (human); remark: listed apart in the source

Molecule: Cc1cc(NC(=O)NCCN2CCC(O)(Cc3ccccc3)CC2)c2ccccc2n1.O=S(=O)(O)O [palosuran, 1-[2-(4-benzyl-4-hydroxy-piperidin-1-yl)-ethyl]-3-(2-methyl-quinolin-4-yl) -urea sulfate salt]
- Affinity toward human UT [1]: high affinity
- Effect on Iso-evoked current in the absence of UT [2]: did not modulate the Iso-evoked current
- Effect/profile of antagonist on [Ca^2+]c ([3]; 10^−6 M): failed to evoke a [Ca^2+]c rise
- Effect on hUII-induced [Ca^2+]c increase ([3]; antagonist 10^−6 M before and during hUII): completely blocked the hUII-induced [Ca^2+]c increase; also recorded: counteracts the UII-evoked [Ca^2+]c increase
- Effect of UT antagonist alone on Iso-evoked current ([4]; 10^−6 M, n = 7–54): mimicked the hUII-induced inhibition of the Iso-evoked current; also recorded: mimics the effect of UII by inhibiting the chloride current
- Effect on prolonged/irreversible action of hUII during washout on Iso-evoked current ([4]; antagonist 10^−6 M with hUII): abolished the irreversible action of hUII during washout

Molecule: URP: paralog urotensin II-related peptide sharing the fully conserved C-terminal cyclic CFWKYC core
- Effect on Iso-evoked current in the absence of UT [2]: failed to affect the amplitude of the current
- Reversibility of [Ca^2+]c increase during washout ([3]; 10^−8 M): totally recovered after 16-min washout; also recorded: recovered to the basal line level
- Increase of the amplitude of baseline [Ca^2+]c ([3]; hUII and URP 10^−8 M, [Orn^5]-URP 10^−6 M, mean from 9 to 25 cells): 341%
- Inhibition of Iso-evoked current ([4]; 10^−8 M, Iso 10^−4 M, mean ± SEM, hUII n = 54, URP n = 12): 22.9±3.5%
- Persistence/reversibility of current inhibition during washout ([4]; 10^−8 M, Iso-evoked current): slightly recovered during washout; also recorded: triggers a reversible inhibition

Molecule: [Orn^5]-URP (peptide)
- [Ca^2+]c increase (Fura-2 imaging) in CHO-UT, [Orn^5]-URP 10^-6 M; behaved as a partial agonist and prevented the sustained effect of hUII on [Ca^2+]c [5]: 265%

B1: urotensin II-related peptide (peptide)
peptide: ACFWKYCV
modifications: also: cyclic CFWKYC core, bridge type not given here
- inhibition of the isoguvacine-evoked chloride current (whole-cell patch clamp) in CHO-UT co-expressing alpha2beta3gamma2 GABAAR, URP 10^-8 M (n = 12) [6]: 22.9%
- increase of the amplitude of baseline [Ca^2+]c (Fura-2 imaging) in CHO-UT, URP 10^-8 M in the bath; recovered after 16-min washout [5]: 341%
